The term EC50 denotes the concentration at which the effect is half-maximal.

Results on 14 molecules are retold here after US7709509B2, “Oxadiazolones and derivatives thereof as peroxisome proliferator-activated receptor (PPAR) delta agonists” (Sanofi-Aventis Deutschland GmbH, priority 2004, dated 2010).

One assay has as its target T1, human PPARalpha (Homo sapiens, UniProt Q07869).
T1 construct: human PPARalpha receptor (amino acids S167-Y468); expressed in transfected cells; host or cells: HEK cells, stably transfected (pcDNA3, CMV promoter)
T1 sequence (Q07869 167-468): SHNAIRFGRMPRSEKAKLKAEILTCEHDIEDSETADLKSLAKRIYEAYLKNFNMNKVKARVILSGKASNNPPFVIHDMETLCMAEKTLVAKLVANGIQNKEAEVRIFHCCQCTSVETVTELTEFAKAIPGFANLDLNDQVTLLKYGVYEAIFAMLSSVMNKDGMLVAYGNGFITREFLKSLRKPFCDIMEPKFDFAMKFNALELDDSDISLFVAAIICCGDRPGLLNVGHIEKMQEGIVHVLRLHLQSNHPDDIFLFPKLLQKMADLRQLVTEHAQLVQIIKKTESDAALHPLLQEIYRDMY
Description: Cellular PPARalpha assay (HEK PPARalpha reporter cell line, luciferase). The format is cell-based. The settings on record: GR-GAL4-humanPPARalpha-LBD. The protocol: Determination of EC50 Values of PPAR Agonists in the Cellular PPARalpha Assay
(§1) The potency of substances which bind to human PPARalpha and activate it in an agonistic manner is analyzed using a stably transfected HEK cell line (HEK=human embryo kidney) which is referred to here as PPARalpha reporter cell line. It contains two genetic elements, a luciferase reporter element (pdeltaM-GAL4-Luc-Zeo) and a PPARalpha fusion protein (GR-GAL4-humanPPARalpha-LBD) which mediates expression of the luciferase reporter element depending on a PPARalpha ligand. The stably and constitutively expressed fusion protein GR-GAL4-humanPPARalpha-LBD binds in the cell nucleus of the PPARalpha reporter cell line via the GAL4 protein portion to the GAL4 DNA binding motifs 5′-upstream of the luciferase reporter element which is stably integrated in the genome of the cell line. There is only weak expression of the luciferase reporter gene in the absence of a PPARalpha ligand if fatty acid-depleted fetal calf serum (cs-FCS) is used in the assay. PPARalpha ligands bind and activate the PPARalpha fusion protein and thereby stimulate the expression of the luciferase reporter gene. The luciferase which is formed can be detected by means of chemiluminescence via an appropriate substrate.
The PPARalpha reporter cell line was prepared in two stages. Firstly, the luciferase reporter element was constructed and stably transfected into HEK cells. For this purpose, five binding sites of the yeast transcription factor GAL4 (Accession # AF264724) were cloned in 5′-upstream of a 68 bp-long minimal MMTV promoter (Accession # V01175). The minimal MMTV promoter section contains a CCAAT box and a TATA element in order to enable efficient transcription by RNA polymerase II. The cloning and sequencing of the GAL4-MMTV construct took place in analogy to the description of Sambrook J. et al. (Molecular cloning, Cold Spring Harbor Laboratory Press, 1989). Then the complete Photinus pyralis gene (Accession # M15077) was cloned in 3′-downstream of the GAL4-MMTV element. After sequencing, the luciferase reporter element consisting of five GAL4 binding sites, MMTV promoter and luciferase gene was recloned into a plasmid which confers zeocin resistance in order to obtain the plasmid pdeltaM-GAL4-Luc-Zeo. This vector was transfected into HEK cells in accordance with the statements in Ausubel, F. M. et al. (Current protocols in molecular biology, Vol. 1-3, John Wiley & Sons, Inc., 1995).
In a second step, the PPARalpha fusion protein (GR-GAL4-humanPPARalpha-LBD was introduced into the stable cell clone described. For this purpose, initially the cDNA coding for the N-terminal 76 amino acids of the glucocorticoid receptor (Accession # P04150) was linked to the cDNA section coding for amino acids 1-147 of the yeast transcription factor GAL4 (Accession # P04386). The cDNA of the ligand-binding domain of the human PPARalpha receptor (amino acids S167-Y468; Accession # S74349) was cloned in at the 3′-end of this GR-GAL4 construct. The fusion construct prepared in this way (GR-GAL4-humanPPARalpha-LBD) was recloned into the plasmid pcDNA3 (Invitrogen) in order to enable constitutive expression therein by the cytomegalovirus promoter. This plasmid was linearized with a restriction endonuclease and stably transfected into the previously described cell clone containing the luciferase reporter element. The finished PPARalpha reporter cell line which contains a luciferase reporter element and constitutively expresses the PPARalpha fusion protein (GR-GAL4-human PPARalpha-LBD) was isolated by selection with zeocin (0.5 mg/ml) and G418 (0.5 mg/ml).
The activity of PPARalpha agonists is determined in a 3-day assay, which is described below: […]

A further assay has as its target T2, human PPARdelta (Homo sapiens, UniProt Q03181).
T2 construct: human PPARdelta receptor (amino acids S139-Y441); expressed in transfected cells; host or cells: HEK cells, stably transfected (pcDNA3, CMV promoter)
T2 sequence (Q03181 139-441): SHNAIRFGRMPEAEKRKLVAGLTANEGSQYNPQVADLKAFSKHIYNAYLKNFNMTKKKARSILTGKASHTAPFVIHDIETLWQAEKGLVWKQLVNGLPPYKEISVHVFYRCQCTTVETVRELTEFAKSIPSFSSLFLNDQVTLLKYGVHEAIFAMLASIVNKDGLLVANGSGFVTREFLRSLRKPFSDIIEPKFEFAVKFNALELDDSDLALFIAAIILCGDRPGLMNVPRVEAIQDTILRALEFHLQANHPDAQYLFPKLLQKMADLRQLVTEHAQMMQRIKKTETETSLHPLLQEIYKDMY
The experiment in a line: Cellular PPARdelta assay (HEK PPARdelta reporter cell line, luciferase). The format is cell-based. The settings on record: GR-GAL4-humanPPARdelta-LBD. The protocol: Determination of EC50 Values of PPAR Agonists in the Cellular PPARdelta Assay
as §1, with “PPARdelta” for “PPARalpha”, “In analogy to the assay described for PPARalpha, the PPARdelta reporter cell line also” for “It”, “(GR-GAL4-humanPPARdelta-LBD)” for “(GR-GAL4-humanPPARalpha-LBD)”, “GR-GAL4-humanPPARdelta-LBD” for “GR-GAL4-humanPPARalpha-LBD”, “little” for “weak”, “stimulate” for “stimulate the”
The production of the stable PPARdelta reporter cell line is based on a stable HEK-cell clone which was stably transfected with a luciferase reporter element. This step was already described above in the section “construction of the PPARalpha reporter cell line”. In a second step, the PPARdelta fusion protein (GR-GAL4-humanPPARdelta-LBD was stably introduced into this cell clone. For this purpose, the cDNA coding for the N-terminal 76 amino acids of the glucocorticoid receptor (Accession # P04150) was linked to the cDNA section coding for amino acids 1-147 of the yeast transcription factor GAL4 (Accession # P04386). The cDNA of the ligand-binding domain of the human PPARdelta receptor (amino acids S139-Y441; Accession # L07592) was cloned in at the 3′-end of this GR-GAL4 construct. The fusion construct prepared in this way (GR-GAL4-humanPPARdelta-LBD) was recloned into the plasmid pcDNA3 (Invitrogen) in order to enable constitutive expression by the cytomegalovirus promoter. This plasmid was linearized with a restriction endonuclease and stably transfected into the previously described cell clone containing the luciferase reporter element. The resulting PPARdelta reporter cell line which contains a luciferase reporter element and constitutively expresses the PPARdelta fusion protein (GR-GAL4-human PPARdelta-LBD) was isolated by selection with zeocin (0.5 mg/ml) and G418 (0.5 mg/ml).
The activity of PPARdelta agonists is determined in a 3-day assay in exact analogy to the procedure already described for the PPARalpha reporter cell line except that the PPARdelta reporter cell line and a specific PPARdelta agonist was used as a standard to control test efficacy.

The conditions of assay [1]: diabetic animal model; cited from earlier work.
For assay [2] the following is noted: obese, insulin resistant rhesus monkeys; cited from earlier work.

For the molecule `Cc1nc(-c2ccc(C(F)(F)F)cc2)sc1COc1ccc(-c2noc(=O)[nH]2)c(Cl)c1` [Example 4, 3-{2-Chloro-4-[4-methyl-2-(4-trifluoromethyl-phenyl)-thiazole-5-ylmethoxy]-phenyl}-4H-[1,2,4]oxadiazole-5-one], the EC50 on human PPARalpha was 1660 nM; at human PPARdelta, 56 nM.

As for `Cc1sc(-c2ccc(S(F)(F)(F)(F)F)cc2)nc1CCOc1ccc(-c2noc(=O)[nH]2)c(Cl)c1` [Example 32], the EC50 at human PPARalpha was 320 nM; at human PPARdelta it was 310 nM.

With `Cc1oc(-c2ccc(-c3ccccc3)cc2)nc1COc1ccc(-c2noc(=O)[nH]2)c(Cl)c1` [Example 30, 3-[4-(2-Biphenyl-4-yl-5-methyl-oxazol-4-ylmethoxy)-2-chloro-phenyl]-4H-[1,2,4]oxadiazol-5-one], the concentration giving a half-maximal response (EC50) stood at 250 nM at human PPARalpha and 16 nM at human PPARdelta.

In the case of `O=c1[nH]c(-c2ccc(OCc3sc(-c4ccc(C(F)(F)F)cc4)nc3CCCOCc3ccccc3)cc2Cl)no1` [Example 50, 3-{4-[4-(3-Benzyloxy-propyl)-2-(4-trifluoromethyl-phenyl)-thiazol-5-ylmethoxy]-2-chloro-phenyl}-4H-[1,2,4]oxadiazol-5-one], the values for the EC50 on human PPARalpha and on human PPARdelta were 420 nM and 0.7 nM, respectively.

In the case of `COCCOCc1nc(-c2ccc(C(F)(F)F)cc2)sc1COc1ccc(-c2noc(=O)[nH]2)c(Cl)c1` [Example 34, 3-{2-Chloro-4-[4-(2-methoxy-ethoxymethyl)-2-(4-trifluoromethyl-phenyl)-thiazol-5-ylmethoxy]-phenyl}-4H-[1,2,4]oxadiazol-5-one], the values for the EC50 on human PPARalpha and on human PPARdelta were 230 nM and 1 nM, respectively.

On to `CCCCc1nc(-c2ccc(C(F)(F)F)cc2)sc1COc1ccc(-c2noc(=O)[nH]2)c(OC)c1` [Example 18, 3-{4-[4-Butyl-2-(4-trifluoromethyl-phenyl)-thiazol-5-ylmethoxy]-2-methoxy-phenyl}-4H-[1,2,4]oxadiazol-5-one], for which the EC50 at human PPARalpha is over 10000 nM; on human PPARdelta, 15 nM.

With `CCCCc1nc(-c2ccc(C(F)(F)F)cc2)sc1COc1ccc(Cc2noc(=O)[nH]2)c(Cl)c1` [Example 10, 3-{4-[4-Butyl-2-(4-trifluoromethyl-phenyl)-thiazol-5-ylmethoxy]-2-chloro-benzyl}-4H-[1,2,4]oxadiazol-5-one], the EC50 at human PPARalpha was 770 nM; at human PPARdelta, 11 nM.

For the molecule `CCCCc1nc(-c2ccc(C(F)(F)F)cc2)sc1COc1ccc(-c2noc(=O)[nH]2)c(C(F)(F)F)c1` [Example 15, 3-{4-[4-Butyl-2-(4-trifluoromethyl-phenyl)-thiazol-5-ylmethoxy]-2-trifluoromethyl-phenyl}-4H-[1,2,4]oxadiazol-5-one], the EC50 at human PPARalpha came out at 150 nM; on human PPARdelta, 3 nM.

As to `Cc1nc(-c2ccc(C(F)(F)F)cc2)sc1CSc1ccc(-c2noc(=O)[nH]2)cc1` [Example 5, 3-{4-[4-Methyl-2-(4-trifluoromethyl-phenyl)-thiazole-5-ylmethylsulfanyl]-phenyl}-4H-[1,2,4]oxadiazole-5-one], the EC50 is 1330 nM at human PPARalpha and 68 nM at human PPARdelta.

`O=c1[nH]c(-c2ccc(OCc3sc(-c4ccc(C(F)(F)F)cc4)nc3CCCCO)cc2Cl)no1` [Example 20, 3-{2-Chloro-4-[4-(4-hydroxy-butyl)-2-(4-trifluoromethyl-phenyl)-thiazol-5-ylmethoxy]-phenyl}-4H-[1,2,4]oxadiazol-5-one]: the EC50 at human PPARalpha amounted to 1560 nM; at human PPARdelta, 55 nM.

Consider `CCCCc1nc(-c2ccc(C(F)(F)F)cc2)sc1COCc1ccc(-c2noc(=O)[nH]2)c(F)c1` [Example 28, 3-{4-[4-Butyl-2-(4-trifluoromethyl-phenyl)-thiazol-5-ylmethoxymethyl]-2-fluoro-phenyl}-4H-[1,2,4]oxadiazol-5-one], for which the EC50 was found to be 120 nM on human PPARalpha and 23 nM on human PPARdelta.

`CCCCc1nc(-c2ccc(C(F)(F)F)cc2)sc1COc1cc(F)c(-c2noc(=O)[nH]2)c(F)c1` [Example 13, 3-{4-[4-Butyl-2-(4-trifluoromethyl-phenyl)-thiazol-5-ylmethoxy]-2,6-difluoro-phenyl}-4H-[1,2,4]oxadiazol-5-one]: the EC50 at human PPARalpha was 360 nM; at human PPARdelta it was 10 nM.

For the molecule `CCCc1c(OCCCOc2ccc(OCC(=O)O)cc2)ccc(C(C)=O)c1O` [Example L-165041], the plasma cholesterol result in assay [1] was “raises”.

Turning to `Cc1cc(SCc2sc(-c3ccc(C(F)(F)F)cc3)nc2C)ccc1OCC(=O)O` [GW501516], in assay [2], the HDL-cholesterol result is “raises”, the insulin levels result is “decreases”, the “plasma LDL-cholesterol” value is “decreases” and the triglycerides result was “decreases”.
